In patent US5912351A, “Anhydrous 1,4-Dihydropyridines and salts thereof” (Recordati, S.A. Chemical and Pharmaceutical Company, priority 1995, dated 1999):

Molecular target: T1, enzyme ACAT (Mus musculus, UniProt Q61263)
T1 construct: Mouse peritoneal macrophages were obtained by peritoneal lavage from mice; endogenous in cells; host or cells: peritoneal macrophages of Balb/c mice, three days after intraperitoneal thioglycolate
T1 sequence (Q61263 1-540): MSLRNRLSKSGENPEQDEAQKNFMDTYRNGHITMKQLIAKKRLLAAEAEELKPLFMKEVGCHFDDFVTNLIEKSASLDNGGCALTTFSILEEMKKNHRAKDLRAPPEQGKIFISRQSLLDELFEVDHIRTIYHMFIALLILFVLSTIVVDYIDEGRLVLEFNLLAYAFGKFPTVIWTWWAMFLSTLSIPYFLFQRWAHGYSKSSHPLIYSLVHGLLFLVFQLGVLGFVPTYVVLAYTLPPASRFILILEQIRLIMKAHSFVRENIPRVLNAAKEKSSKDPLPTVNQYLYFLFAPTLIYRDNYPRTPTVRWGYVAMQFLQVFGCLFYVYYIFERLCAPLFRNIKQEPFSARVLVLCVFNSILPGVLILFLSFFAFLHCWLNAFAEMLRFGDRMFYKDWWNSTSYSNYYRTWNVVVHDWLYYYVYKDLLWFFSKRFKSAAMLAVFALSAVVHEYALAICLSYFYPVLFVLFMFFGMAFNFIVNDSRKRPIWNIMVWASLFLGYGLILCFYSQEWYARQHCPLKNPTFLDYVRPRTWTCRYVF
Assay: Cholesterol esterification induced by AcLDL in mouse peritoneal macrophages
Type: cell-based
Conditions: FIG. 3
Method: Cholesterol esterification induced by AcLDL in mouse peritoneal macrophages was investigated as follows. Mouse peritoneal macrophages were obtained by peritoneal lavage from mice (Balb/c Charles River, Calco, Italy) three days after intraperitoneal injection of thioglycolate. Cells (2×3×10^6) were plated in 35 mm wells with Dulbecco's minimum essential medium containing 10% fetal bovine serum. After 3 hours, the dishes were washed to eliminate unattached cells and maintained in Dulbecco's minimum essential medium plus 10% fetal bovine serum for 24 hours before use. After cell plating, experiments were performed at 37° C. in serum free Dulbecco's minimum essential medium containing 0.2% essentially fatty acid-free bovine serum albumin, AcLDL, a specific ACAT inhibitor, S-58035 (See C. A. Ross et al., J. Biol, Chem. 259: 815-819 (1984)), and lercanidipine, or the lercanidipine enantiomers indicated. Human LDL (d=1.019-1.063 g/ml) were isolated from plasma of healthy volunteers by sequential ultracentrifugation (Beckman L5-50, Palo Alto, Calif.). […] Trichloroacetic acid non-precipitable radioactivity was below 2% of total. […] Cholesterol esterification was measured after addition of [1-^14 C] oleic acid (0.68 mCi sample) complexed with bovine serum albumin during the last 1 or 2 hours of incubation by subsequent determination of radioactivity associated with cellular cholesteryl esters.

In the case of `COC(=O)C1=C(C)NC(C)=C(C(=O)OC(C)(C)CN(C)CCC(c2ccccc2)c2ccccc2)[C@@H]1c1cccc([N+](=O)[O-])c1` [(R)-LE, (R)-(-)METHYL 1,1-N-TRIMETHYL-N-(3,3-DIPHENYLPROPYL)-2-AMINOETHYL 1,4-DIHYDRO-2,6-DIMETHYL-4-(3-NITROPHENYL)PYRIDINE-3,5-DICARBOXYLATE], the “relative potency, cholesterol esterification” value is reported as “most potent compound”.
